Reference: US9149038B2, “4-amino-6-(heterocyclic)picolinates and 6-amino-2-(heterocyclic)pyrimidine-4-carboxylates and their use as herbicides” (Dow AgroSciences LLC, priority 2013, dated 2015)
Where two headings read alike, the source gives them in different places.

Test system: Wheat and Barley and weed species
Test: Post-Emergent Test III: postemergent herbicidal activity in wheat and barley, visual rating after 21 d and probit GR20/GR50/GR80/GR90 (Tables 9-13)
Type: in vivo
Details: for Visual Growth Reduction (%) 21 Days After Application BRSNW: winter, canola; for pest or weed control at 17.5 g/ha / pest or weed control at 35 g/ha / pest or weed control at 70 g/ha: post-emergence, 504 h
In short: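 Greenhouse plants (~18/17 °C, 14 h photoperiod) at second–third true leaf stage sprayed at 187 L/ha with a high rate and ½× to 1/16× serial dilutions. Visual injury 0–100% versus solvent-blank controls scored at 21 d; GR20, GR50, GR80 and GR90 derived by probit analysis across rates.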

## Nc1c(F)c(-c2ccc3c(c2)OC(F)(F)O3)nc(C(=O)O)c1Cl [Compound 7]
ALOMY black-grass (Alopecurus myosuroides), growth reduction of 50%, probit analysis
  GR50 ALOMY: 16 g ai/ha
ALOMY black-grass (Alopecurus myosuroides), growth reduction of 80%, probit analysis
  GR80 ALOMY: 25 g ai/ha
ALOMY black-grass (Alopecurus myosuroides), growth reduction of 90%, probit analysis
  GR90 ALOMY: 34 g ai/ha
APESV bentgrass (Apera spica-venti), growth reduction of 50%, probit analysis
  GR50 APESV: 30 g ai/ha
APESV bentgrass (Apera spica-venti), growth reduction of 80%, probit analysis
  GR80 APESV: 114 g ai/ha
APESV bentgrass (Apera spica-venti), growth reduction of 90%, probit analysis
  GR90 APESV: >140 g ai/ha
BROTE downy brome (Bromus tectorum), 17.5 g ai/ha
  Visual Growth Reduction (%) 21 Days After Application BROTE: E (45-59)
BROTE downy brome (Bromus tectorum), 35 g ai/ha
  Visual Growth Reduction (%) 21 Days After Application BROTE: D (60-74)
BROTE downy brome (Bromus tectorum), 70 g ai/ha
  Visual Growth Reduction (%) 21 Days After Application BROTE: A (95-100)
BROTE downy brome (Bromus tectorum), growth reduction of 50%, probit analysis
  GR50 BROTE: 15 g ai/ha
BROTE downy brome (Bromus tectorum), growth reduction of 80%, probit analysis
  GR80 BROTE: 37 g ai/ha
BROTE downy brome (Bromus tectorum), growth reduction of 90%, probit analysis
  GR90 BROTE: 59 g ai/ha
BRSNW oil seed rape, winter (Brassica napus), GR10, probit analysis
  GR10 BRSNW: 0.5 g ai/ha
BRSNW oil seed rape, winter (Brassica napus), growth reduction of 20%, probit analysis
  GR20 BRSNW: 1 g ai/ha
BRSNW oil seed rape, winter (Brassica napus), growth reduction of 50%, probit analysis
  GR50 BRSNW: 5 g ai/ha
BRSNW oil seed rape, winter (Brassica napus), growth reduction of 80%, probit analysis
  GR80 BRSNW: 24 g ai/ha
BRSNW oil seed rape, winter (Brassica napus), growth reduction of 90%, probit analysis
  GR90 BRSNW: 53 g ai/ha
BRSNW oil seed rape, winter (Brassica napus), 17.5 g ai/ha
  Visual Growth Reduction (%) 21 Days After Application BRSNW: D (60-74)
BRSNW oil seed rape, winter (Brassica napus), 35 g ai/ha
  Visual Growth Reduction (%) 21 Days After Application BRSNW: C (75-84)
BRSNW oil seed rape, winter (Brassica napus), 70 g ai/ha
  Visual Growth Reduction (%) 21 Days After Application BRSNW: A (95-100)
GALAP cleavers (Galium aparine), 17.5 g ai/ha
  Visual Growth Reduction (%) 21 Days After Application GALAP: E (45-59)
GALAP cleavers (Galium aparine), 35 g ai/ha
  Visual Growth Reduction (%) 21 Days After Application GALAP: D (60-74)
GALAP cleavers (Galium aparine), 70 g ai/ha
  Visual Growth Reduction (%) 21 Days After Application GALAP: A (95-100)
GALAP cleavers (Galium aparine), growth reduction of 50%, probit analysis
  GR50 GALAP: 12 g ai/ha
GALAP cleavers (Galium aparine), growth reduction of 80%, probit analysis
  GR80 GALAP: 31 g ai/ha
GALAP cleavers (Galium aparine), growth reduction of 90%, probit analysis
  GR90 GALAP: 52 g ai/ha
HORVS barley, spring (crop), GR10, probit analysis
  GR10 HORVS: 1 g ai/ha
HORVS barley, spring (crop), growth reduction of 20%, probit analysis
  GR20 HORVS: 2 g ai/ha
Hordeum vulgare, HORVS barley, spring (crop), 17.5 g ai/ha, read-out: Visual Growth Reduction (%) 21 Days After Application HORVS
  pest or weed control at 17.5 g/ha: 75 to 84%
Hordeum vulgare, HORVS barley, spring (crop), 35 g ai/ha, read-out: Visual Growth Reduction (%) 21 Days After Application HORVS
  pest or weed control at 35 g/ha: 85 to 94%
Hordeum vulgare, HORVS barley, spring (crop), 70 g ai/ha, read-out: Visual Growth Reduction (%) 21 Days After Application HORVS
  pest or weed control at 70 g/ha: 85 to 94%
LAMPU purple deadnettle (Lamium purpureum), 17.5 g ai/ha
  Visual Growth Reduction (%) 21 Days After Application LAMPU: C (75-84)
LAMPU purple deadnettle (Lamium purpureum), 35 g ai/ha
  Visual Growth Reduction (%) 21 Days After Application LAMPU: B (85-94)
LAMPU purple deadnettle (Lamium purpureum), 70 g ai/ha
  Visual Growth Reduction (%) 21 Days After Application LAMPU: A (95-100)
LAMPU purple deadnettle (Lamium purpureum), growth reduction of 50%, probit analysis
  GR50 LAMPU: 3 g ai/ha
LAMPU purple deadnettle (Lamium purpureum), growth reduction of 80%, probit analysis
  GR80 LAMPU: 12 g ai/ha
LAMPU purple deadnettle (Lamium purpureum), growth reduction of 90%, probit analysis
  GR90 LAMPU: 27 g ai/ha
LOLSS ryegrass, growth reduction of 50%, probit analysis
  GR50 LOLSS: >140 g ai/ha
LOLSS ryegrass, growth reduction of 80%, probit analysis
  GR80 LOLSS: >140 g ai/ha
LOLSS ryegrass, growth reduction of 90%, probit analysis
  GR90 LOLSS: >140 g ai/ha
PHAMI lesser canary grass (Phalaris minor), 17.5 g ai/ha
  Visual Growth Reduction (%) 21 Days After Application PHAMI: C (75-84)
PHAMI lesser canary grass (Phalaris minor), 35 g ai/ha
  Visual Growth Reduction (%) 21 Days After Application PHAMI: B (85-94)
PHAMI lesser canary grass (Phalaris minor), 70 g ai/ha
  Visual Growth Reduction (%) 21 Days After Application PHAMI: A (95-100)
PHAMI lesser canary grass (Phalaris minor), growth reduction of 50%, probit analysis
  GR50 PHAMI: 10 g ai/ha
PHAMI lesser canary grass (Phalaris minor), growth reduction of 80%, probit analysis
  GR80 PHAMI: 24 g ai/ha
PHAMI lesser canary grass (Phalaris minor), growth reduction of 90%, probit analysis
  GR90 PHAMI: 39 g ai/ha
SETVI green foxtail (Setaria viridis), growth reduction of 50%, probit analysis
  GR50 SETVI: 6 g ai/ha
SETVI green foxtail (Setaria viridis), growth reduction of 80%, probit analysis
  GR80 SETVI: 13 g ai/ha
SETVI green foxtail (Setaria viridis), growth reduction of 90%, probit analysis
  GR90 SETVI: 21 g ai/ha
SINAR wild mustard (Sinapis arvensis), 17.5 g ai/ha
  Visual Growth Reduction (%) 21 Days After Application SINAR: C (75-84)
SINAR wild mustard (Sinapis arvensis), 35 g ai/ha
  Visual Growth Reduction (%) 21 Days After Application SINAR: B (85-94)
SINAR wild mustard (Sinapis arvensis), 70 g ai/ha
  Visual Growth Reduction (%) 21 Days After Application SINAR: A (95-100)
SINAR wild mustard (Sinapis arvensis), growth reduction of 50%, probit analysis
  GR50 SINAR: 3 g ai/ha
SINAR wild mustard (Sinapis arvensis), growth reduction of 80%, probit analysis
  GR80 SINAR: 15 g ai/ha
SINAR wild mustard (Sinapis arvensis), growth reduction of 90%, probit analysis
  GR90 SINAR: 36 g ai/ha
TRZAS wheat, spring (crop), GR10, probit analysis
  GR10 TRZAS: 2 g ai/ha
TRZAS wheat, spring (crop), growth reduction of 20%, probit analysis
  GR20 TRZAS: 3 g ai/ha
Triticum aestivum, TRZAS wheat, spring (crop), 17.5 g ai/ha, read-out: Visual Growth Reduction (%) 21 Days After Application TRZAS
  pest or weed control at 17.5 g/ha: 75 to 84%
Triticum aestivum, TRZAS wheat, spring (crop), 35 g ai/ha, read-out: Visual Growth Reduction (%) 21 Days After Application TRZAS
  pest or weed control at 35 g/ha: 85 to 94%
Triticum aestivum, TRZAS wheat, spring (crop), 70 g ai/ha, read-out: Visual Growth Reduction (%) 21 Days After Application TRZAS
  pest or weed control at 70 g/ha: 85 to 94%
ALOMY black-grass (Alopecurus myosuroides), 17.5 g ai/ha, read-out: Visual Growth Reduction (%) 21 Days After Application ALOMY
  pest or weed control at 17.5 g/ha: 45 to 59%
ALOMY black-grass (Alopecurus myosuroides), 35 g ai/ha, read-out: Visual Growth Reduction (%) 21 Days After Application ALOMY
  pest or weed control at 35 g/ha: 85 to 94%
ALOMY black-grass (Alopecurus myosuroides), 70 g ai/ha, read-out: Visual Growth Reduction (%) 21 Days After Application ALOMY
  pest or weed control at 70 g/ha: 95 to 100%
APESV bentgrass (Apera spica-venti), 17.5 g ai/ha, read-out: Visual Growth Reduction (%) 21 Days After Application APESV
  pest or weed control at 17.5 g/ha: 45 to 59%
APESV bentgrass (Apera spica-venti), 35 g ai/ha, read-out: Visual Growth Reduction (%) 21 Days After Application APESV
  pest or weed control at 35 g/ha: 60 to 74%
APESV bentgrass (Apera spica-venti), 70 g ai/ha, read-out: Visual Growth Reduction (%) 21 Days After Application APESV
  pest or weed control at 70 g/ha: 75 to 84%
LOLSS ryegrass, 17.5 g ai/ha, read-out: Visual Growth Reduction (%) 21 Days After Application LOLSS
  pest or weed control at 17.5 g/ha: 30 to 44%
LOLSS ryegrass, 35 g ai/ha, read-out: Visual Growth Reduction (%) 21 Days After Application LOLSS
  pest or weed control at 35 g/ha: 45 to 59%
LOLSS ryegrass, 70 g ai/ha, read-out: Visual Growth Reduction (%) 21 Days After Application LOLSS
  pest or weed control at 70 g/ha: 60 to 74%
SETVI green foxtail (Setaria viridis), 17.5 g ai/ha, read-out: Visual Growth Reduction (%) 21 Days After Application SETVI
  pest or weed control at 17.5 g/ha: 60 to 74%
SETVI green foxtail (Setaria viridis), 35 g ai/ha, read-out: Visual Growth Reduction (%) 21 Days After Application SETVI
  pest or weed control at 35 g/ha: 75 to 84%
SETVI green foxtail (Setaria viridis), 70 g ai/ha, read-out: Visual Growth Reduction (%) 21 Days After Application SETVI
  pest or weed control at 70 g/ha: 85 to 94%
